Values of other authors, collected in PMC9811530 (Experimental and Clinical Endocrinology & Diabetes, 2022).
Where two headings read alike, the source gives them in different places.

How the values were obtained:
11beta-HSD1 in AT = conditions: single dose, 24 h after dosing; cited from earlier work
11beta-HSD1 in the liver = 11beta-HSD1 in the liver (Homo sapiens, UniProt P28845); conditions: cited from earlier work
Chain of 11beta-HSD1 in the liver (P28845 whole entry): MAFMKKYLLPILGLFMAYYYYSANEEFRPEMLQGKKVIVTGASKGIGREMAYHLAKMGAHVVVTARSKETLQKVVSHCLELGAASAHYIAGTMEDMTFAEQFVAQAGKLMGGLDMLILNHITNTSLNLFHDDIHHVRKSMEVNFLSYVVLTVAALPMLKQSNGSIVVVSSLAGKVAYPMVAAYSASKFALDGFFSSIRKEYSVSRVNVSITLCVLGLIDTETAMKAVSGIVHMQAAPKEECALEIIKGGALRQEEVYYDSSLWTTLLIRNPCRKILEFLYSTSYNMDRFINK

C[C@@H](c1ccc(-c2ccn(C)c(=O)c2)cc1)N1CC[C@](CC(C)(C)O)(c2ccccc2)OC1=O [BI 135585]
inhibition of 11beta-HSD1 in AT (11beta-HSD1 in AT): 90%

CCCSc1nc(N2CCC[C@@H](CC(=O)O)C2)ccc1C(=O)NC1CCCCC1 [AZD4017]
maximum decrease of the (aTHF+THF)/THE ratio (11beta-HSD1 in the liver; after 9 days): 92%

N#Cc1ccc(-c2ccc(S(=O)(=O)Nc3cccc(N)n3)cc2)cc1 [PF-915275]
maximum decrease of the (aTHF+THF)/THE ratio (11beta-HSD1 in the liver; after 14 days of treatment): 26%

CC(C)[C@]1(C)SC(=N[C@H]2C[C@@H]3CC[C@H]2C3)NC1=O [AMG 221]
11beta-HSD1 inhibition in AT (11beta-HSD1 in AT): > 90%
